# According to patent publication US5232684A, “Labelled resiniferatoxin, compositions thereof, and methods for using the same” (priority 1990, dated 1993):
# Experiments:
# [1] = biological target: T1, capsaicin receptor (rat DRG) (Rattus norvegicus, UniProt O35433); experiment: RTX binding in DRG preparations after in vivo RTX treatment
# T1 construct: homotetramer
# [2] = test system: capsaicin receptor (sheep DRG); experiment: [^3H]RTX binding to sheep DRG membranes; settings: DRG from sheep
# [3] = biological target: T2, capsaicin receptor (dorsal horn from pig spinal cord) (Sus scrofa, UniProt F1RLJ0); experiment: Binding to membrane preparations from dissected dorsal horn of pig spinal cord
# T2 construct: membrane preparations from dissected dorsal horn from pig spinal cord; from tissue; host or cells: dissected dorsal horn of pig spinal cord
# Procedure: The binding assays are carried out in a volume of 250 ul, containing assay buffer (same as the disrupting buffer but omitting DTT and EGTA and including 0.75 mM CaCl2), 26-30 ug of membrane protein and 0.25 mg/ml bovine serum albumin. […] Tubes are kept on ice while the additions are made. The assay mixture is incubated for 10 min at 37° C.; it is then cooled on ice. 150 ul of the mixture is pipetted onto Whatman GF/C or GF/F glass fiber filters presoaked with 10 mg/ml bovine serum albumin in 20 mM Tris-Cl (pH 7.4) and filtered immediately. An aliquot of 50 ul of the mixture is removed to determine total radioactivity. The filters are washed with 100 ml of ice-cold 20 mM Tris-Cl, pH 7 4, containing 0.1 mg/ml bovine serum albumin, and the bound radioactivity is determined by scintillation counting. Non-specific binding is determined in the presence of 100-1000 nM non-radioactive RTX. Under these conditions approximately 30% of the non-specific binding is due to sticking of [^3 H]RTX to the filters. The remainder presumably reflects partitioning into the lipid phase of the membranes, as had been observed previously for typical phorbol esters (Driedger, P.E. and Blumberg, P.M., Specific binding of phorbol ester tumor promoters, Proc. Natl. Acad. Sci. U.S.A., 77 (1980) 567-571). […]
# Alternatively, binding can be measured to membrane preparations from dissected dorsal horn from pig spinal cord. […]
# [4] = test system: rat brain preoptic region; experiment: [^3H]RTX binding to rat brain preoptic region
# [5] = biological target: T3, capsaicin receptor (rat Gasser ganglia) (Rattus norvegicus, UniProt O35433); experiment: biochemical; assay type: binding; settings: rat Gasser ganglia
# T3 construct: from tissue; host or cells: Gasser ganglia of female Sprague-Dawley rats
# Procedure: Membrane preparations are obtained from the DRG and Gasser ganglia of female Sprague-Dawley rats (250-300 g); animals are sacrificed by decapitation under ether anesthesia, the ganglia removed and collected into ice-cold disrupting buffer (5 mM KCl, 5.8 mM NaCl, 2 mM MgCl2, 12 mM glucose, 137 mM sucrose, 10 mM HEPES, 5 mM DTT, 2 mM EGTA, pH 7.4). After homogenization with the aid of a Polytron tissue homogenizer, samples are filtered over surgical gauze and then washed twice with the same buffer and stored at -70° C. Particulate fractions are obtained from other rat neural tissues (cerebellum, spinal cord, preoptic region, striatum, substantia nigra) and from DRG of pigs (Mt. Airy Locker Co., Mt. Airy, MD), sheep, cows (kindly provided by Dr. Solomon, USDA, Beltsville, MD), and chickens (Truslow Farms, Chesterton, MD) by a similar procedure.
# The binding assays are carried out in a volume of 250 ul, containing assay buffer (same as the disrupting buffer but omitting DTT and EGTA and including 0.75 mM CaCl2), 26-30 ug of membrane protein and 0.25 mg/ml bovine serum albumin. […] Tubes are kept on ice while the additions are made. The assay mixture is incubated for 10 min at 37° C.; it is then cooled on ice. 150 ul of the mixture is pipetted onto Whatman GF/C or GF/F glass fiber filters presoaked with 10 mg/ml bovine serum albumin in 20 mM Tris-Cl (pH 7.4) and filtered immediately. An aliquot of 50 ul of the mixture is removed to determine total radioactivity. The filters are washed with 100 ml of ice-cold 20 mM Tris-Cl, pH 7 4, containing 0.1 mg/ml bovine serum albumin, and the bound radioactivity is determined by scintillation counting. Non-specific binding is determined in the presence of 100-1000 nM non-radioactive RTX.
# Binding data from saturation experiments using increasing concentrations of hot ligand are analyzed using the collection of computer programs described by McPherson (McPherson, G.A., Analysis of radioligand binding experiments: a collection of computer programs for the IBM PC, J.Pharmacol.Methods, 14 (1985) 213-228).
# Scatchard and Hill transformations are performed by the Equilibrium Binding Data Analysis program referred to as EBDA. Data are further analyzed by the curvilinear regression program LIGAND (Munson, R.J. and Rodbard, D., LIGAND: a versatile computerized approach for characterization of ligand-binding systems, Anal.Biochem, 107 (1980) 220-239).
# RTX binding is also analyzed in the presence of a fixed, low (60 pM or 300 pM) concentration of [^3 H]RTX and increasing concentrations of non-radioactive RTX or other ligand. […] The Ki value for RTX is calculated from the relationship Ki =ID50 -L; the Ki values for other ligands are calculated from the general form of the equation (Cheng, Y.C. and Prusoff, W.H., Relation between the inhibition constant (Ki) and the concentration of inhibitor which causes 50 per cent inhibition (I50) of an enzymatic reaction, Biochem. Pharmacol., 22 (1973) 3099-3108) Ki =IC50 /(1+L/Kd) where L=concentration of labelled ligand and Kd =dissociation constant of radioactive ligand as determined in the saturation experiments using variable concentrations of hot ligand. Comparison of the quality of fit using single and multiple site competition models is performed by the LIGAND program.
# Gasser ganglia represents the […] homolog of the dorsal root ganglia.
# striatum = experiment: [^3H]RTX binding to rat striatum
# T3 sequence (O35433 whole entry): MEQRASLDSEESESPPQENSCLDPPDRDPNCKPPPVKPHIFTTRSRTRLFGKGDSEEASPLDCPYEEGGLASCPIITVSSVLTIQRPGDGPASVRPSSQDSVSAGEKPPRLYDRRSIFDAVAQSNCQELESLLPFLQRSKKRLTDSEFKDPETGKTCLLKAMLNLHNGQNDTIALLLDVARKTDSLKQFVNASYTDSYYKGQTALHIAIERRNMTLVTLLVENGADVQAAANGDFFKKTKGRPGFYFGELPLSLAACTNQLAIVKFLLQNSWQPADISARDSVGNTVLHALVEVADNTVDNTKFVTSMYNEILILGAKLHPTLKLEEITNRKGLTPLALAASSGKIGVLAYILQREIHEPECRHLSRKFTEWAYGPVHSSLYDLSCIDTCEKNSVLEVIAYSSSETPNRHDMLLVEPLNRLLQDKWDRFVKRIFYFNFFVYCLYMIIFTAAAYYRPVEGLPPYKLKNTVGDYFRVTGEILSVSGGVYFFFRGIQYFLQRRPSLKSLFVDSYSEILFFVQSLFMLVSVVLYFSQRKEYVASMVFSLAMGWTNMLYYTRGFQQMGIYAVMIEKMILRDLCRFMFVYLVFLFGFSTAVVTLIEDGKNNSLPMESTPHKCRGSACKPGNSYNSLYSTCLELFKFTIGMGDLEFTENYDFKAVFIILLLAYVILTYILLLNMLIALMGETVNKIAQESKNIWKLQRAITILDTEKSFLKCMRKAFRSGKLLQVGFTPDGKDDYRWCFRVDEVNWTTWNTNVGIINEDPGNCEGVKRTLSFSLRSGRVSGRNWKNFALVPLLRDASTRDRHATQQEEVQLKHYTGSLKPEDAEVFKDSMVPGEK
# T2 sequence (F1RLJ0 1-841): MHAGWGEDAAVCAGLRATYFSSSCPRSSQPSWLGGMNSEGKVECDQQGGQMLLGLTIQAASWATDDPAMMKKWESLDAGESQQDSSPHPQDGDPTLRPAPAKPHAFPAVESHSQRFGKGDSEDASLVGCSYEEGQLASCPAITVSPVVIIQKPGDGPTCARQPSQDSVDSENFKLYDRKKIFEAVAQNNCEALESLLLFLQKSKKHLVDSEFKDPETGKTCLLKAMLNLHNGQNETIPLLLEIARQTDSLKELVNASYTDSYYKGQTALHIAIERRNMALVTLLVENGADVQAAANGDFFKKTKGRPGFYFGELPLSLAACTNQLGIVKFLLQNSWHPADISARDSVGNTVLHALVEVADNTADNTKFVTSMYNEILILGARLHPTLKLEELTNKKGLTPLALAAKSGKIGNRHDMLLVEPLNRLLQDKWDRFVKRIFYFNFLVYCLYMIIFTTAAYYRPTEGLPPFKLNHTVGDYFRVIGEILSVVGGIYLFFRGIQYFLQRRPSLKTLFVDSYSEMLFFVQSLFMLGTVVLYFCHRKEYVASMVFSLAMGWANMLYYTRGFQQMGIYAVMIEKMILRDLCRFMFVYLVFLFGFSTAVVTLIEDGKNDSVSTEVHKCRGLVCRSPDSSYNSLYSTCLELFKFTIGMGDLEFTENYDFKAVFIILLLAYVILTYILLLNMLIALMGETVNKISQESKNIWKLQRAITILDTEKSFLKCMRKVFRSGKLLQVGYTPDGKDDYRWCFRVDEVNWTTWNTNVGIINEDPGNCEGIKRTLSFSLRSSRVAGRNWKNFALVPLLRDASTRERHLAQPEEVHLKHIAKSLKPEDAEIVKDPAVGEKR
# T1 sequence (O35433 whole entry): as the sequence (O35433 whole entry) above
smiles,measurement,setting,value
"C=C(C)[C@]12C[C@@H](C)[C@@]34O[C@](Cc5ccccc5)(O[C@@H]1[C@@H]3C=C(COC(=O)Cc1ccc(O)c(OC)c1)C[C@]1(O)C(=O)C(C)=C[C@@H]41)O2 [[^3 H]RTX, [^3 H]resiniferatoxin]",[^3H]RTX binding sites in neonatally treated animals,[1],very significant loss
same,specific binding,[2],Specific binding is observed
same,% specific binding,[3],90%
same,Kd,[3],0.1 nM
same,detection of [^3H]RTX binding,[4],very difficult
same,Hill coefficient,[5],0.87
same,Bmax,"[5]; 3 separate experiments, LIGAND",90 fmol/mg
same,Kd,"[5]; 3 separate experiments, LIGAND",0.13 nM
same,detection of [^3H]RTX binding,striatum,very difficult
